Assay results published in patent publication US7964598B2 (The J. David Gladstone Institutes, priority 1995, dated 2011).

What was measured:
[1] = tested on: apoE4 enhancement of Aβ production; test: Aβ production assay, B103-APP cells incubated with apoE4; type: cell-based, rat; conditions: RAP 25 nM, preincubated 1 h
Procedure: Aβ production assay. Stable neuroblastoma B103 cell lines transfected with a wildtype hAPP cDNA construct (B 103-APP) were selected by growing them in Dulbecco's modified Eagle's medium (DMEM) containing 10% fetal calf serum (FBS) and 400 μg/ml G418. A cell line expressing APP at similar levels in mouse brains has been identified by RNase protection assay (RPA) and was used in the studies described below. To determine Aβ production, B103-APP cells were incubated with serum-free minimal essential medium (MEM) containing N2 supplements with or without apoE isoforms for 24 h at 37° C. After incubation, 50 μl of medium was collected and assayed for Aβ levels with an ELISA method. The cells were lysed, and cellular proteins were determined by the Lowry method. AP production was normalized to cellular protein.
Cell Culture. Rat neuroblastoma B103 cells stably expressing human wildtype APP (hAPP695wt) (Xu et al. ((1999) Proc. Natl. Acad. Sci. USA 96:7547-7552; Esposito, et al. (2004) J. Neurochem. 91:1260-1274) were generated in Dr. Lennart Mucke's laboratory at the Gladstone Institute of Neurological Disease and maintained in Dulbecco's modified Eagle's medium (DMEM) (GIBCO, Grand Island, N.Y.) containing 400 μg/ml G418, 10% fetal bovine serum, and 5% horse serum at 37° C. Twenty-four hours after plating into 48-well plates (1×10^5 cells per well), cells were washed twice with serum-free DMEM and cultured for another 24 h in DMEM containing 1% N-2 supplement (GIBCO) to induce differentiation. The cells were treated with either β-VLDL (25 μg/ml cholesterol), recombinant human apoE isoform-enriched β-VLDL (7.5 μg/ml apoE and 25 μg/ml cholesterol), or recombinant human apoE (7.5 μg/ml apoE) in fresh DMEM containing 1% N-2 supplement for an additional 24 h. In some experiments, RAP (25 nM or 1 μM) was added to the cells 1 h before apoE treatment.
Aβ Assay. Aβ secreted into the medium was detected with a sandwich enzyme-linked immunosorbent assay (ELISA), using mAb 266 as a capturing antibody and 3D6 as a detecting antibody, as described. Johnson-Wood et al. ((1997) Proc. Natl. Acad. Sci. USA 94:1550-1555). Aβ was quantified from a standard curve (Aβ42; Bachem, Torrance, Calif.) and normalized by total cellular protein.

[2] = tested on: apoE4-expressing Neuro-2a cells; test: Neurite outgrowth, apoE4-expressing Neuro-2a cells; type: cell-based, mouse; conditions: in the presence of β-VLDL
Procedure: Cells were grown in DME/F12 containing 10% FBS and G418 (400 μg/ml). On the day the experiment was initiated, the cells were subcultured into 35 mm plates in DME/F12 with 10% FBS. The cells were allowed to adhere to the plastic plates for 2 hr at 37° C., and then the culture medium was changed to N2 medium with or without increasing concentrations of lipoproteins. After 48 hr at 37° C., the media were replaced with the same medium (with or without lipoproteins), and the incubation was continued for an additional 48 hr. […] Neurons were imaged in fluorescence mode with a confocal laser scanning system (MRC-600, BioRad, Hercules, Calif.), and the images were digitized with an Image-1/AT image analysis system (Universal Images, West Chester, Pa.). The neuronal images were coded before characterization, and the following variables were measured: 1) number of neurites (defined as cell surface projections at least one-half the cell diameter) on each neuron; 2) neurite branching (the number of branch points on each neurite); and 3) neurite extension (the length of the longest neurite, measured from the cell body). Typically, in each experiment the neurites of 20 to 40 neurons per plate were measured and the results preserved as the mean±S.E.M. […]

Neuro-2a cells = test: Binding of DiI-labeled LDL to Neuro-2a cells; type: cell-based, mouse; conditions: 5 μg/ml of RAP

Substance: RAP: receptor-associated protein, 39-kD glycoprotein, LRP antagonist
- apoE4 enhancement of Aβ production [1]: abolished the apoE4-induced enhancement of Aβ production
- inhibition of neurite extension seen in the apoE4-expressing cells [2]: blocked the inhibition of neurite extension
- binding of DiI-labeled LDL to the Neuro-2a cells (Neuro-2a cells): did not block
